ChEMBL document CHEMBL1201862, “PubChem BioAssay data set” (2004)
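48-hour exposure; five concentrations; linearly interpolated endpoints. At the GI50, growth is halved.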 Calls of active or inactive are those of the source. Rule as the data show it: active = GI50 up to about 1.1 µM and inactive = higher.

Key:
Experiment in all cases: growth of human tumour cells (NCI), 48 h
SNB-75 = system: SNB-75
SK-MEL-2 = system: SK-MEL-2
OVCAR-3 = system: OVCAR-3
M14 = system: M14
UO-31 = system: UO-31
CCRF-CEM = system: CCRF-CEM
TK-10 = system: TK-10
SR = system: SR
KM12 = system: KM12
NCI-H522 = system: NCI-H522
SF-268 = system: SF-268
U-251 = system: U-251
SNB-19 = system: SNB-19
SF-295 = system: SF-295
K562 = system: K562
A498 = system: A498
DU-145 = system: DU-145
MDA-MB-435 = system: MDA-MB-435
MDA-MB-231 = system: MDA-MB-231

Measured: GI50

O=C1NC2(C=Cc3c(ccc4ccccc34)O2)Oc2ccccc21 (stereo unspecified)
inactive: SNB-75 15.1 µM | SK-MEL-2 13.2 µM | OVCAR-3 13.4 µM | M14 31 µM | UO-31 1.76 µM | CCRF-CEM 3.95 µM | TK-10 21.5 µM | SR 5.15 µM | KM12 5.18 µM | NCI-H522 11.4 µM | SF-268 17.2 µM | U-251 15 µM | SNB-19 20.7 µM | SF-295 13 µM | K562 3.58 µM

COc1ccc(-c2[nH]c3ccccc3c2CCNS(=O)(=O)c2ccc(C)cc2)cc1
inactive: SNB-75 > 10 µM | SK-MEL-2 > 10 µM | OVCAR-3 7.23 µM | M14 > 10 µM | UO-31 4.92 µM | A498 > 10 µM | CCRF-CEM 3.72 µM | TK-10 > 7.8 µM | SR > 10 µM | KM12 6.82 µM | NCI-H522 7.93 µM | SF-268 > 10 µM | U-251 8.09 µM | SNB-19 > 10 µM | SF-295 > 8.41 µM | K562 5.06 µM

CCOC(=O)N1CCc2cc(OC)c(OC)c3c2C1CC3=O (stereo unspecified)
inactive: SNB-75 > 100 µM | SK-MEL-2 > 100 µM | M14 > 100 µM | UO-31 > 100 µM | A498 > 100 µM | CCRF-CEM > 100 µM | TK-10 > 100 µM | SR > 100 µM | KM12 > 100 µM | NCI-H522 > 100 µM | SF-268 > 100 µM | U-251 > 100 µM | SNB-19 > 100 µM | SF-295 > 100 µM | K562 > 100 µM

O=C(NCCCCCCCCNC(=O)c1cnc2ccccc2n1)c1cnc2ccccc2n1
inactive: SNB-75 49.9 µM | SK-MEL-2 > 100 µM | OVCAR-3 > 100 µM | M14 > 100 µM | UO-31 > 100 µM | A498 > 100 µM | CCRF-CEM > 100 µM | TK-10 > 100 µM | SR > 100 µM | KM12 > 100 µM | SF-268 > 100 µM | U-251 > 100 µM | SNB-19 > 100 µM | SF-295 > 100 µM | K562 > 100 µM

O=C1/C(=C\c2ccc(F)cc2)CCOc2c1ccc1ccccc21
inactive: SNB-75 12.4 µM | SK-MEL-2 45.7 µM | OVCAR-3 8.15 µM | M14 26.2 µM | UO-31 > 55.2 µM | A498 27.4 µM | CCRF-CEM 5.82 µM | DU-145 31 µM | TK-10 24.4 µM | KM12 7.94 µM | NCI-H522 34 µM | SF-268 23.4 µM | U-251 10.6 µM | SNB-19 17.7 µM | MDA-MB-435 26.8 µM | MDA-MB-231 14.8 µM | SF-295 22 µM | K562 6.68 µM

CN(OC(=O)CC(=O)c1ccccc1)C(=O)Cc1ccccc1
inactive: SK-MEL-2 > 100 µM | OVCAR-3 > 100 µM | M14 > 100 µM | UO-31 > 100 µM | A498 > 100 µM | CCRF-CEM > 100 µM | TK-10 > 100 µM | SR > 100 µM | KM12 > 100 µM | NCI-H522 > 100 µM | SF-268 > 100 µM | U-251 > 100 µM | SNB-19 > 100 µM | SF-295 > 100 µM

O=C(CSCC(=O)N/N=C/c1cccs1)N/N=C/c1cccs1
inactive: SNB-75 > 100 µM | SK-MEL-2 93.1 µM | OVCAR-3 38.6 µM | M14 > 100 µM | UO-31 48.3 µM | A498 > 100 µM | CCRF-CEM 51.6 µM | DU-145 54.3 µM | TK-10 > 100 µM | KM12 > 100 µM | NCI-H522 38.6 µM | SF-268 72.9 µM | U-251 > 100 µM | SNB-19 56.1 µM | MDA-MB-435 > 100 µM | MDA-MB-231 75.9 µM | SF-295 52.7 µM | K562 > 100 µM

OCCN1CCN2C=C(C3CCCC4N(CCO)CCN34)CCC21 (stereo unspecified)
inactive: SNB-75 34.8 µM | SK-MEL-2 23.5 µM | OVCAR-3 35.4 µM | M14 44.7 µM | UO-31 97.3 µM | A498 > 100 µM | CCRF-CEM 5.56 µM | TK-10 > 53.5 µM | SR 5.68 µM | KM12 > 95.7 µM | NCI-H522 > 44 µM | SF-268 49.8 µM | U-251 41.4 µM | SNB-19 > 100 µM | SF-295 98.4 µM | K562 11.6 µM

CC(=O)Nc1ccc(S(=O)(=O)NN(C)S(=O)(=O)c2ccc(C)cc2)cc1
inactive: SK-MEL-2 > 100 µM | OVCAR-3 > 100 µM | M14 > 100 µM | UO-31 > 100 µM | A498 > 100 µM | CCRF-CEM > 100 µM | TK-10 > 100 µM | SR > 100 µM | KM12 > 100 µM | NCI-H522 > 100 µM | SF-268 > 100 µM | SNB-19 > 100 µM | SF-295 > 100 µM | K562 > 100 µM

Cn1nc(-c2ccccc2)c(N=[N+]=[N-])cc1=O
inactive: OVCAR-3 > 100 µM | M14 > 100 µM | UO-31 > 100 µM | A498 > 100 µM | CCRF-CEM > 100 µM | TK-10 > 100 µM | SR > 100 µM | KM12 > 100 µM | NCI-H522 > 100 µM | SF-268 > 100 µM | U-251 > 100 µM | SNB-19 > 100 µM | SF-295 > 100 µM | K562 > 100 µM

CCCCCCCCCCCCCC(=O)OCC1OC(n2cc(F)c(=O)[nH]c2=O)C(NC(=O)OCc2ccccc2)C(OC(=O)CCCCCCCCCCCCC)C1O (stereo unspecified)
inactive: SNB-75 > 100 µM | SK-MEL-2 > 100 µM | OVCAR-3 > 100 µM | M14 > 100 µM | UO-31 > 100 µM | A498 > 100 µM | CCRF-CEM > 100 µM | TK-10 > 100 µM | SR > 100 µM | KM12 > 100 µM | NCI-H522 > 100 µM | SF-268 > 100 µM | U-251 > 100 µM | SNB-19 > 100 µM | SF-295 22.9 µM | K562 > 100 µM

CN(C)NC1=NS(=O)(=O)c2cc3c(cc2S1)N(N(C)C)C(=O)c1cc2c(cc1N(N(C)C)C3=O)SC(NN(C)C)=NS2(=O)=O
inactive: SNB-75 > 10 µM | SK-MEL-2 > 10 µM | OVCAR-3 > 10 µM | M14 > 10 µM | UO-31 > 10 µM | A498 > 10 µM | CCRF-CEM > 10 µM | DU-145 > 10 µM | TK-10 > 10 µM | SR > 10 µM | KM12 > 10 µM | NCI-H522 > 10 µM | SF-268 > 10 µM | U-251 > 10 µM | SNB-19 > 10 µM | SF-295 > 10 µM | K562 > 10 µM

N#C/C(=C1\OC(=N)C(c2ccc(Cl)cc2)=C1O)c1ccc(Cl)cc1
inactive: SNB-75 17.5 µM | OVCAR-3 14.8 µM | M14 15.2 µM | UO-31 16.2 µM | A498 17.2 µM | CCRF-CEM 12.8 µM | TK-10 26.4 µM | SR 18.7 µM | KM12 16.6 µM | NCI-H522 12 µM | SF-268 36.6 µM | U-251 15.3 µM | SNB-19 19.6 µM | SF-295 15.8 µM | K562 23.5 µM

C=CC[C@H]1C[C@@]2(C)OC[C@H](C(C)C)N2C1=O
inactive: SNB-75 > 100 µM | SK-MEL-2 > 100 µM | OVCAR-3 > 100 µM | A498 > 100 µM | CCRF-CEM > 100 µM | TK-10 > 100 µM | SR > 100 µM | KM12 > 100 µM | SF-268 > 100 µM | U-251 > 100 µM | SNB-19 > 100 µM | SF-295 > 100 µM | K562 > 100 µM

Cn1c(=O)c2c(ncn2CCCCn2ccnc2[N+](=O)[O-])n(C)c1=O
inactive: SNB-75 38.3 µM | SK-MEL-2 > 100 µM | OVCAR-3 > 100 µM | M14 > 100 µM | UO-31 > 100 µM | CCRF-CEM > 100 µM | TK-10 > 100 µM | SR > 100 µM | KM12 > 100 µM | NCI-H522 > 100 µM | SF-268 > 100 µM | U-251 > 100 µM | SNB-19 > 100 µM | SF-295 > 100 µM | K562 > 100 µM

COC(=O)C1[C@@H](C(=O)OC)C(=O)O[C@H]1c1cc(OC)c(OC)c(OC)c1 (stereo partly specified)
inactive: SNB-75 > 100 µM | OVCAR-3 > 100 µM | M14 > 100 µM | UO-31 > 100 µM | A498 48.5 µM | CCRF-CEM > 100 µM | TK-10 > 100 µM | SR > 100 µM | KM12 > 100 µM | SF-268 > 100 µM | U-251 > 100 µM | SNB-19 > 100 µM | SF-295 > 100 µM | K562 > 100 µM

Sc1nn2c(Cc3ccccc3)nnc2s1
inactive: SK-MEL-2 > 100 µM | OVCAR-3 > 100 µM | M14 > 100 µM | UO-31 > 100 µM | CCRF-CEM > 100 µM | DU-145 > 100 µM | TK-10 > 100 µM | KM12 > 100 µM | NCI-H522 > 100 µM | SF-268 > 100 µM | U-251 > 100 µM | SNB-19 > 100 µM | MDA-MB-435 > 100 µM | MDA-MB-231 > 100 µM | SF-295 > 100 µM | K562 > 100 µM
